Measurements from PubChem BioAssay AID588565 (Sanford-Burnham Center for Chemical Genomics, 2011).
Active and inactive are the calls of the source.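 How the source made its calls: active means cytotoxic at 24 hours, with mean IC50 of 20 µM or lower; inactive means the rest.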

Each compound was assayed on CHO-XBP1 cytotoxicity, ATPlite luminescence, 24 h (assay: CHO-XBP1 cell viability loss – 24 h exposure, ATPlite luminescence, cytotoxicity control for UPR adaptive arm activator project, SAR follow-up (AID 588565)).

Compound	IC50
Cc1nc(Nc2nc(-c3ccccc3)cc(=O)[nH]2)nc2ccccc12	> 80 µM (inactive)
O=C(Nc1ccc(F)cc1)c1cc(-c2ccncc2)nc2ccccc12	> 80 µM (inactive)
Cc1ccc(NC(=O)c2cc(-c3ccncc3)nc3ccccc23)cc1	> 80 µM (inactive)
Cc1cc(Br)cc(NC(=O)c2cc(-c3ccncc3)nc3ccccc23)c1	> 80 µM (inactive)
O=C(Nc1ccc(C(F)(F)F)cc1)c1cc(-c2ccncc2)nc2ccccc12	> 80 µM (inactive)
O=C(Nc1ccc(Cl)cc1)c1cc(-c2ccncc2)nc2ccccc12	64 µM (inactive)
O=C(Nc1ccc(Br)c(C(F)(F)F)c1)c1cc(-c2ccncc2)nc2ccccc12	> 80 µM (inactive)
